Reference: ChEMBL document CHEMBL3044990, “Synthesis and Insecticidal Activity of 5-Dimethylamino-1, 3dithianes” (1991)
Values after ≈ are worked out from the molar mass of the structure shown.

How the values were obtained:
Assay type in all cases: functional
[1] = test system: Spodoptera litura; assay: Insecticidal activity against third-instar larvae of Spodoptera litura in soybean seedlings assessed as mortality at 500 ppm after 48 hr
[2] = test system: Henosepilachna vigintioctopunctata; assay: Insecticidal activity against third-instar larvae of Henosepilachna vigintioctopunctata assessed as mortality after 2 days; details: 48 h
[3] = test system: Tetranychus urticae; assay: Insecticidal activity against Tetranychus urticae (two-spotted spider mite) in kidney bean plant leaf assessed as mortality at 500 ppm after 2 days; details: 48 h
[4] = test system: Laodelphax striatellus; assay: Insecticidal activity against 3rd instar larva of Laodelphax striatella (small brown planthopper) assessed as mortality at 50 ppm after 6 days; details: 144 h
[5] = test system: Chilo suppressalis; assay: Insecticidal activity against 5th instar larva of Chilo suppressalis assessed as mortality at 50 ug/g after 48 hr

CCCCCNC(=O)C1(C#N)SCC(N(C)C)CS1 (centres undefined)
mortality at 500 ppm [1]: 50%
LC50 [2]: 10 µg/mL (≈ 33.2 µM)
mortality at 500 ppm [3]: 50%
mortality at 50 ppm [4]: 29%
mortality [5]: 100%

CN(C)C1CSC(C#N)(c2ccccc2F)SC1 (centres undefined)
LC50 [2]: 15 µg/mL (≈ 53.1 µM)
mortality at 500 ppm [3]: 100%
mortality at 50 ppm [4]: 55%
mortality [5]: 100%

CN(C)C1CSC(C#N)(c2cccc([N+](=O)[O-])c2)SC1 (centres undefined)
LC50 [2]: 15 µg/mL (≈ 48.5 µM)
mortality at 500 ppm [3]: 100%
mortality at 50 ppm [4]: 70%
mortality [5]: 100%

CN(C)C1CSC(C#N)(c2c(Cl)cccc2Cl)SC1 (centres undefined)
LC50 [2]: 15 µg/mL (≈ 45 µM)
mortality at 500 ppm [3]: 80%
mortality at 50 ppm [4]: 99%
mortality [5]: 100%

CN(C)C1CSC(C#N)(c2cc(Cl)cc(Cl)c2)SC1 (centres undefined)
LC50 [2]: 133 µg/mL (≈ 399 µM)
mortality at 500 ppm [3]: 100%
mortality at 50 ppm [4]: 55%
mortality [5]: 100%

CN(C)C1CSC(C#N)(c2ccccc2[N+](=O)[O-])SC1 (centres undefined)
LC50 [2]: 19 µg/mL (≈ 61.4 µM)
mortality at 500 ppm [3]: 70%
mortality at 50 ppm [4]: 85%
mortality [5]: 100%

CNC(=O)C1(C#N)SCC(N(C)C)CS1 (centres undefined)
mortality at 500 ppm [1]: 90%
LC50 [2]: 25 µg/mL (≈ 102 µM)
mortality at 500 ppm [3]: 100%
mortality at 50 ppm [4]: 50%
mortality [5]: 100%

CN(C)C1CSC(C#N)(c2ccc(Br)cc2)SC1 (centres undefined)
LC50 [2]: 25 µg/mL (≈ 72.8 µM)
mortality at 500 ppm [3]: 100%
mortality at 50 ppm [4]: 100%
mortality [5]: 100%

CCC(C)NC(=O)C1(C#N)SCC(N(C)C)CS1 (centres undefined)
mortality at 500 ppm [1]: 80%
LC50 [2]: 33 µg/mL (≈ 115 µM)
mortality at 500 ppm [3]: 100%
mortality at 50 ppm [4]: 25%
mortality [5]: 100%

CCCNC(=O)C1(C#N)SCC(N(C)C)CS1 (centres undefined)
mortality at 500 ppm [1]: 60%
LC50 [2]: 11 µg/mL (≈ 40.2 µM)
mortality at 500 ppm [3]: 100%
mortality at 50 ppm [4]: 20%
mortality [5]: 100%

CCCCNC(=O)C1(C#N)SCC(N(C)C)CS1 (centres undefined)
mortality at 500 ppm [1]: 80%
LC50 [2]: 40 µg/mL (≈ 139 µM)
mortality at 500 ppm [3]: 100%
mortality at 50 ppm [4]: 20%
mortality [5]: 100%

Cc1ccc(C2(C#N)SCC(N(C)C)CS2)cc1 (centres undefined)
LC50 [2]: 25 µg/mL (≈ 89.8 µM)
mortality at 500 ppm [3]: 100%
mortality at 50 ppm [4]: 85%
mortality [5]: 100%

CN(C)C1CSC(C#N)(c2ccccc2)SC1 (centres undefined)
LC50 [2]: 200 µg/mL (≈ 756 µM)
mortality at 500 ppm [3]: 10%
mortality at 50 ppm [4]: 15%
mortality [5]: 100%

CC(C)N(C(=O)C1(C#N)SCC(N(C)C)CS1)C(C)C (centres undefined)
mortality at 500 ppm [1]: 60%
LC50 [2]: 16 µg/mL (≈ 50.7 µM)
mortality at 500 ppm [3]: 100%
mortality at 50 ppm [4]: 26%
mortality [5]: 100%

CN(C)C1CSC(C#N)(C(=O)NC(C)(C)C)SC1 (centres undefined)
mortality at 500 ppm [1]: 80%
LC50 [2]: 20 µg/mL (≈ 69.6 µM)
mortality at 500 ppm [3]: 100%
mortality at 50 ppm [4]: 45%
mortality [5]: 100%

CN(C)C1CSC(C#N)(C(=O)N2CCCC2)SC1 (centres undefined)
mortality at 500 ppm [1]: 20%
LC50 [2]: 10 µg/mL (≈ 35 µM)
mortality at 500 ppm [3]: 100%
mortality at 50 ppm [4]: 25%
mortality [5]: 100%

COc1ccc(C2(C#N)SCC(N(C)C)CS2)cc1 (centres undefined)
LC50 [2]: 35 µg/mL (≈ 119 µM)
mortality at 500 ppm [3]: 100%
mortality at 50 ppm [4]: 20%
mortality [5]: 100%

CC(C)NC(=O)C1(C#N)SCC(N(C)C)CS1 (centres undefined)
mortality at 500 ppm [1]: 40%
LC50 [2]: 40 µg/mL (≈ 146 µM)
mortality at 500 ppm [3]: 100%
mortality at 50 ppm [4]: 20%
mortality [5]: 100%

COc1ccccc1C1(C#N)SCC(N(C)C)CS1 (centres undefined)
LC50 [2]: 30 µg/mL (≈ 102 µM)
mortality at 500 ppm [3]: 100%
mortality at 50 ppm [4]: 20%
mortality [5]: 100%

CN(C)C1CSC(C#N)(c2ccccc2Br)SC1 (centres undefined)
LC50 [2]: 10 µg/mL (≈ 29.1 µM)
mortality at 500 ppm [3]: 100%
mortality at 50 ppm [4]: 85%
mortality [5]: 100%

CN(C)C1CSC(C#N)(c2ccc(Cl)c(Cl)c2)SC1 (centres undefined)
LC50 [2]: 12 µg/mL (≈ 36 µM)
mortality at 500 ppm [3]: 50%
mortality at 50 ppm [4]: 40%
mortality [5]: 100%

CN(C)C1CSC(C#N)(c2cccc(F)c2)SC1 (centres undefined)
LC50 [2]: 18 µg/mL (≈ 63.7 µM)
mortality at 500 ppm [3]: 100%
mortality at 50 ppm [4]: 85%
mortality [5]: 100%

CN(C)C(=O)C1(C#N)SCC(N(C)C)CS1 (centres undefined)
mortality at 500 ppm [1]: 80%
LC50 [2]: 11 µg/mL (≈ 42.4 µM)
mortality at 500 ppm [3]: 70%
mortality at 50 ppm [4]: 20%
mortality [5]: 100%

CN(C)C1CSC(C#N)(C(N)=O)SC1 (centres undefined)
mortality at 500 ppm [1]: 100%
LC50 [2]: 30 µg/mL (≈ 130 µM)
mortality at 500 ppm [3]: 100%
mortality at 50 ppm [4]: 35%
mortality [5]: 100%

Cc1ccccc1C1(C#N)SCC(N(C)C)CS1 (centres undefined)
LC50 [2]: 100 µg/mL (≈ 359 µM)
mortality at 500 ppm [3]: 60%
mortality at 50 ppm [4]: 20%
mortality [5]: 100%

CN1CCN(C(=O)C2(C#N)SCC(N(C)C)CS2)CC1 (centres undefined)
mortality at 500 ppm [1]: 20%
LC50 [2]: 20 µg/mL (≈ 63.6 µM)
mortality at 500 ppm [3]: 100%
mortality at 50 ppm [4]: 35%
mortality [5]: 100%

CN(C)C1CSC(C#N)(c2cccc(Br)c2)SC1 (centres undefined)
LC50 [2]: 15 µg/mL (≈ 43.7 µM)
mortality at 500 ppm [3]: 100%
mortality at 50 ppm [4]: 70%
mortality [5]: 100%

CCCCCCCNC(=O)C1(C#N)SCC(N(C)C)CS1 (centres undefined)
mortality at 500 ppm [1]: 80%
LC50 [2]: 23 µg/mL (≈ 69.8 µM)
mortality at 500 ppm [3]: 90%
mortality at 50 ppm [4]: 80%
mortality [5]: 100%

CCCCCCCCCNC(=O)C1(C#N)SCC(N(C)C)CS1 (centres undefined)
mortality at 500 ppm [1]: 90%
LC50 [2]: 23 µg/mL (≈ 64.3 µM)
mortality at 500 ppm [3]: 100%
mortality at 50 ppm [4]: 100%
mortality [5]: 100%

CCNC(=O)C1(C#N)SCC(N(C)C)CS1 (centres undefined)
mortality at 500 ppm [1]: 80%
LC50 [2]: 6 µg/mL (≈ 23.1 µM)
mortality at 500 ppm [3]: 90%
mortality at 50 ppm [4]: 20%
mortality [5]: 100%

Cc1ccc(C)c(C2(C#N)SCC(N(C)C)CS2)c1 (centres undefined)
LC50 [2]: 25 µg/mL (≈ 85.5 µM)
mortality at 500 ppm [3]: 100%
mortality at 50 ppm [4]: 15%
mortality [5]: 100%

CN(C)C1CSC(C#N)(C(=O)NC2CC2)SC1 (centres undefined)
mortality at 500 ppm [1]: 50%
LC50 [2]: 8 µg/mL (≈ 29.5 µM)
mortality at 500 ppm [3]: 40%
mortality at 50 ppm [4]: 25%
mortality [5]: 100%

CN(C)C1CSC(C#N)(c2ccc(Cl)cc2)SC1 (centres undefined)
LC50 [2]: 120 µg/mL (≈ 402 µM)
mortality at 500 ppm [3]: 100%
mortality at 50 ppm [4]: 75%
mortality [5]: 100%

CN(C)C1CSC(C#N)(c2ccccc2Cl)SC1 (centres undefined)
LC50 [2]: 15 µg/mL (≈ 50.2 µM)
mortality at 500 ppm [3]: 100%
mortality at 50 ppm [4]: 95%
mortality [5]: 100%

CN(C)C1CSC(C#N)(c2cccc(C(F)(F)F)c2)SC1 (centres undefined)
LC50 [2]: 18 µg/mL (≈ 54.1 µM)
mortality at 500 ppm [3]: 100%
mortality at 50 ppm [4]: 95%
mortality [5]: 100%

CN(C)C1CSC(C#N)(c2cc(F)ccc2F)SC1 (centres undefined)
LC50 [2]: 30 µg/mL (≈ 99.9 µM)
mortality at 500 ppm [3]: 100%
mortality at 50 ppm [4]: 30%
mortality [5]: 100%

CN(C)C1CSC(C#N)(c2ccc(F)cc2)SC1 (centres undefined)
LC50 [2]: 130 µg/mL (≈ 460 µM)
mortality at 500 ppm [3]: 100%
mortality at 50 ppm [4]: 15%
mortality [5]: 100%

Cc1cccc(C2(C#N)SCC(N(C)C)CS2)c1 (centres undefined)
LC50 [2]: 120 µg/mL (≈ 431 µM)
mortality at 500 ppm [3]: 80%
mortality at 50 ppm [4]: 30%
mortality [5]: 100%

CN(C)C1CSC(C#N)(c2cccc(Cl)c2)SC1 (centres undefined)
LC50 [2]: 10 µg/mL (≈ 33.5 µM)
mortality at 500 ppm [3]: 80%
mortality at 50 ppm [4]: 85%
mortality [5]: 100%

CN(C)C1CSC(C#N)(c2ccc(N)cc2)SC1 (centres undefined)
LC50 [2]: 25 µg/mL (≈ 89.5 µM)
mortality at 500 ppm [3]: 100%
mortality at 50 ppm [4]: 45%
mortality [5]: 100%

CN(C)C1CSC(C#N)(c2ccc([N+](=O)[O-])cc2)SC1 (centres undefined)
LC50 [2]: 18 µg/mL (≈ 58.2 µM)
mortality at 500 ppm [3]: 60%
mortality at 50 ppm [4]: 95%
mortality [5]: 100%

CN(C)C1CSSC1 [NEREISTOXIN]
mortality at 500 ppm [1]: 90%
mortality at 500 ppm [3]: 50%
mortality at 50 ppm [4]: 80%
mortality [5]: 100%
